Assay [1] addresses T1, NEP (neutral endpeptidase) (Rattus norvegicus, UniProt P07861).
T1 construct: membrane fraction prepared from the kidney cortex of rat; from tissue; host or cells: rat kidney cortex membrane fraction
T1 sequence (P07861 1-750): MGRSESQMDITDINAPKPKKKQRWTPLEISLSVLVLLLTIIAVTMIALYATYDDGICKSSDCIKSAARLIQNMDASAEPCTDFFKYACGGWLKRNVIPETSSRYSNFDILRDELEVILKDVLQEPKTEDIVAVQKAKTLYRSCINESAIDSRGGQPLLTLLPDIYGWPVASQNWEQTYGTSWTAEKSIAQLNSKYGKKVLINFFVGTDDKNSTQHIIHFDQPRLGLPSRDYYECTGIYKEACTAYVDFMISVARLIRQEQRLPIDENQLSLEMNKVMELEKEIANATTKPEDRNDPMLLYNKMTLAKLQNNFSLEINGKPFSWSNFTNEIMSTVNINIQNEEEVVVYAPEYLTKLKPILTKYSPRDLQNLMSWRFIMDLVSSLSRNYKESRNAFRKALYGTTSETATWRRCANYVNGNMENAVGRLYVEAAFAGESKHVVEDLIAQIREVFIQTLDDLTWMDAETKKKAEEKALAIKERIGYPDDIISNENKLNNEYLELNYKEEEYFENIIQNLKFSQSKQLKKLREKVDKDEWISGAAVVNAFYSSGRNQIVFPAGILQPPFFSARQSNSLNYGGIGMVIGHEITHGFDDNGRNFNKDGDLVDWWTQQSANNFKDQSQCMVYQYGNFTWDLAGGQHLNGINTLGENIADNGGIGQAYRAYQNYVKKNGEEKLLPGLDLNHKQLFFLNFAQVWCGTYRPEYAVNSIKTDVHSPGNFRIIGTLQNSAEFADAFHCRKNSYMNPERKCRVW
As to the kind of experiment: NEP inhibiting activity with rat kidney cortex membrane fraction. It counts as biochemical. The conditions noted are these: substrate Benzoyl-Gly-Arg-Arg-2-naphthylamide, 540 nm. The protocol:
Determination of NEP inhibiting activities of medicaments with rat kidney cortex
NEP activity was determined with the membrane fraction prepared from the kidney cortex of rat according to the process of Booth and Kenny (A Rapid Method for the Purification of Microvilli from Rabbit Kidney., Andrew G. Booth and A. John Kenny, Biochem J., 1974, 142, 575-581).
The NEP activity was determined according to the process of Orlowsky and Wilk (Purification and Specificity of a Membrane-Bound Metalloendpeptidase from Bovine Pituitaries., Marian Orlowsky and Shrwin Wilk, Biochemistry, 1981, 20, 4942-4950.) by the following method.
Benzoyl-glycyl-arginyl-arginyl-2-naphthylamide (Benzoyl-Gly-Arg-Arg-2-napththylamide (Nova Biochem, Switzerland)) was used as substrate. The naphthylamine liberated in the presence of the NEP enzyme sample and excess of leucine aminopeptidase (Sigma Chemical Co., U.S.A.) was color-developed with […] (Sigma Chemical Co., U.S.A.) and the absorbance at a wavelength of 540 nm was determined.
The NEP inhibiting activity was determined by adding the test compound to the above experiment system in final concentrations of 1, 3, 10, 30, 100, 300 and 1000 nM to form an inhibition curve and determining the concentration at which 50% of the activity was inhibited as IC50. [4S-(4α,7α(R*), 12bβ]]-7-[(1-oxo-2(S)-thio-3-phenylpropyl)amino]-1,2,3,4,6,7,8,12b-octahydro-6-oxopyrido[2,1-a] [2] benzazepine-4-carboxylic acid (which is a compound disclosed in Japanese Patent Publication-A No. 4-282382) was used as the control compound.

For assay [2], the target named is T2, ACE (angiotensin I converting enzyme) (Rattus norvegicus, UniProt P47820).
T2 construct: membrane fraction prepared from the lung of rat; from tissue; host or cells: rat lung membrane fraction
T2 sequence (P47820 36-1313): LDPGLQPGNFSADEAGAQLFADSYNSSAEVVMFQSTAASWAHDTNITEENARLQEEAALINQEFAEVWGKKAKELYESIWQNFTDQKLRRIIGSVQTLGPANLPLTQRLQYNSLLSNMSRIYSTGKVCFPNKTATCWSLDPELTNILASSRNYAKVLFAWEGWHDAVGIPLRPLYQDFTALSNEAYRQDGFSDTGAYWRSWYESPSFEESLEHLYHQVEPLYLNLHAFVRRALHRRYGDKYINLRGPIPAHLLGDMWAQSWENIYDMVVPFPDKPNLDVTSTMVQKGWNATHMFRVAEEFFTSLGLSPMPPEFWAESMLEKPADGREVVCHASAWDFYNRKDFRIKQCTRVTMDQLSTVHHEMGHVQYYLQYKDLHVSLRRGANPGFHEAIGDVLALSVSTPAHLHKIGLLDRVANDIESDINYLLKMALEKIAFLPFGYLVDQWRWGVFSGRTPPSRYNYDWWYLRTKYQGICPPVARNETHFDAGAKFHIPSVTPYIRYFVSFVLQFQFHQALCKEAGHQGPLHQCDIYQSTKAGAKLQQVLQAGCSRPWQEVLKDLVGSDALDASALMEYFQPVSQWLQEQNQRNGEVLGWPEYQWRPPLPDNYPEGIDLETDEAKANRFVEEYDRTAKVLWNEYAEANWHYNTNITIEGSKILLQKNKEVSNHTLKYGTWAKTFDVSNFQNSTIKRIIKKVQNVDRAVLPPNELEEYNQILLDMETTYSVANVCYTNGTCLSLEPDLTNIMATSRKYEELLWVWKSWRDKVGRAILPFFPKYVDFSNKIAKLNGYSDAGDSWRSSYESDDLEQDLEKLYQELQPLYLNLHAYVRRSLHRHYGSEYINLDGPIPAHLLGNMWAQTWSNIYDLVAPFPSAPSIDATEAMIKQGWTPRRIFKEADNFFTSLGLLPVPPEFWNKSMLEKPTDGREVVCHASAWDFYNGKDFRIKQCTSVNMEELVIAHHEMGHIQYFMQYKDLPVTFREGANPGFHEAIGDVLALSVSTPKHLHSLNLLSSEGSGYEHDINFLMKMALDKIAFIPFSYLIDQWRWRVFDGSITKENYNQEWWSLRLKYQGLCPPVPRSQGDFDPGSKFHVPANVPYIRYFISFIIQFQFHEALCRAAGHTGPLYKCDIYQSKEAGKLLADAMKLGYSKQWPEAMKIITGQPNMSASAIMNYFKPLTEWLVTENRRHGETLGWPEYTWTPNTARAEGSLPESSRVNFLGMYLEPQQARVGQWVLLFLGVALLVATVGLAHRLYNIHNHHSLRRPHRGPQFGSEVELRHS
The assay can be described thus: ACE inhibiting activity with rat lung membrane fraction. It counts as biochemical. The note with it: substrate Hippuryl-His-Leu, borate buffer pH 8.3, 228 nm. The protocol:
Determination of ACE inhibiting activities of medicaments with rat lung
ACE inhibiting activity was examined with the membrane fraction prepared from the lung of rat according to the method of Wu-Wong et al. (Characterization of Endthelin Converting Enzyme in Rat Lung, Junshyum R. Wu-Wong, Gerald P. Budzik, Edward M. Devine and Terry J. Opgenorth, Biochem. Biophys. Res. Commun., 1990, 171, 1291-1296.).
The ACE activity was determined by a modification (wherein the pH of the borate buffer was changed to 8.3) of the Cushman-Cheung method (Spectrophotometric Assay and Properties of the Angiotensin-Converting Enzyme of Rabbit Lung., Cushman D. W. and Cheung H. S., 1971, 20, 1637-1648).
The hippurate liberated from Hippuryl-histidylleucine (Hippuryl-His-Leu (Peptidelnstitute lnc., Japan)) in the presence of ACE was extracted with ethyl acetate and the absorbance at a wavelength of 228 nm was determined.
The ACE inhibiting activity was determined by adding the test compound to the above experiment system in final concentrations of 1, 3, 10, 30, 100, 300 and 1000 nM to form an inhibition curve and determining the concentration at which 50% of the activity was inhibited as IC50. [4S-[4α,7α(R*),12bβ]]-7-[(1-oxo-2(S)-thio-3-phenylpropyl)amino]-1,2,3,4,6,7,8,12b-octahydro-6-oxopyrido[2,1-a] [2]benzazepine-4-carboxylic acid (which is a compound disclosed in Japanese Patent Publication-A No. 4-282382) was used as the control compound.

Consider `CC[C@H](C)[C@H](S)C(=O)N[C@H]1CC[C@H](C)[C@H]2SC[C@@H](C(=O)O)N2C1=O` [Example 3, [3R-(3α,6α,9β,9aβ)]-6-[[(2S,3S)-1-Oxo-2-thio-3-methylpentyl]amino]-9-methyl-5-oxo-octahydrothiazolo[3,2-a]azepine-3-carboxylic acid], for which the IC50 stood at 4.3 nM in assay [1] and 2.5 nM in assay [2].
The corresponding values for `CC[C@H](C)[C@H](S)C(=O)N[C@H]1C[C@@H](C)C[C@H]2SC[C@@H](C(=O)O)N2C1=O` [Example 9, [3R-(3α,6α,8α,9aβ)]-6-[[(2S,3S)-1-Oxo-2-thio-3-methylpentyl]amino]-8-methyl-octahydro-5-oxothiazolo[3,2-a]azepine-3-carboxylic acid] are 13 nM and 5.1 nM.
On to `CC[C@H](C)[C@H](S)C(=O)N[C@H]1C[C@H](C)C[C@H]2SC[C@@H](C(=O)O)N2C1=O` [Example 10, [3R-(3α,6α,8β,9aβ)]-6-[[(2S,3S)-1-Oxo-2-thio-3-methylpentyl]amino]-8-methyl-octahydro-5-oxothiazolo[3,2-a]azepine-3-carboxylic acid], for which the values for the IC50 in assay [1] and in assay [2] were 12 nM and 4.3 nM, respectively.
Take `CC[C@H](C)[C@H](S)C(=O)N[C@H]1CC[C@@H](C)[C@H]2SC[C@@H](C(=O)O)N2C1=O` [Example 11, [3R-(3α,6α,9α,9aβ)]-6-[[(2S,3S)-1-Oxo-2-thio-3-methylpentyl]amino]-9-methyl-5-oxo-octahydrothiazolo[3,2-a]azepine-3-carboxylic acid]: the figures for the IC50 in assay [1] and in assay [2] were 6.7 nM and 2.2 nM, respectively.
The corresponding values for `CC[C@H]1CC[C@H](NC(=O)[C@@H](S)[C@@H](C)CC)C(=O)N2[C@@H]1SC[C@H]2C(=O)O` [Example 24, [3R-(3α,6α,9β,9aβ)]-6-[[(2S,3S)-1-Oxo-2-thio-3-methylpentyl]amino]-9-ethyl-5-oxo-octahydrothiazolo[3,2-a]azepine-3-carboxylic acid] are 1.5 nM and 2.5 nM.

The IC50 is the concentration needed to halve the response being measured.

Values taken from US5789403A, “Substituted thiazolo [3,2-a]azepine derivatives” (Eisai Co., Ltd., priority 1994, dated 1998).
